Measured values taken from patent US20020107197A1, “Ligands for G protein coupled receptors and methods of using them” (priority 2000, published 2002).

Key:
[1] = biological target: T1, GPR4 (Homo sapiens, UniProt P46093); experiment: Radioligand binding to homogenates of GPR4-transfected CHO cells; conditions: cold competitors, GPR4-transfected CHO cell homogenates
T1 construct: were used to generate full length GPR4, which was digested with EcoRI and Xba I and cloned into the pBs3HA vector; expressed in transfected cells
Protocol: To characterize the binding of SPC and LPC to GPR4 and TDAG8, we conducted radioligand binding assays. CHO cells were chosen for GPR4 binding assays, since HEK293 cells express relatively high levels of endogenous GPR4. CHO cells stably transfected with empty vector or GPR4 were serum starved for 20 h, then collected after exposure to 2 mM EDTA in PBS. The pelleted cells were stored at −80° C. until use. Binding assays were performed essentially as described previously (Xu et al. (2000) Nat Cell Biol 2, 261-267), except binding was performed at 4° C. Briefly, frozen cells (10^6 cells/ml) were homogenized in a binding buffer. Assays were performed in 96-well plates in triplicate with 100 μl cell homogenate (equivalent to 10^5 cells/well). Different amounts of [^3H]SPC or [^3H]16:0-LPC were added to the cell homogenates in 50 μl of binding buffer, in the presence or absence of cold SPC or 16:0-LPC, or other competitors. The plates were incubated at 4° C. for 120 min, unless otherwise indicated. Cell-bound [^3H]SPC or [^3H]LPC was collected onto a filter (Printed Filtermat A, Wallac, Gaithersburg, Md.) using an automated cell harvester (HARVESTER 96, Tomtec, Orange, Conn.). Specific binding was calculated by subtraction of nonspecific binding (binding detected in the presence of 100-fold excess unlabeled SPC or 16:0-LPC) from the total binding.
Cell homogenates were used for binding assays. Binding was conducted at 4° C. for 120 min or as indicated. [^3H]SPC and [^3H]16:0-LPC specifically bound to cell homogenates from GPR4-transfected CHO cells in a time-dependent manner and reached equilibrium after 60 min incubation at 4° C. […] The maximum binding capacities for SPC and 16:0-LPC were 996 fmole/10^5 cells for SPC and 1,528 fmole/10^5 cells for 16:0-LPC. […] Binding assays using [^3H]18:0-LPC gave similar results. We also tested the four glycosphingolipids, Psy, Glu-Sph, Gal-Cer, and Lac-Cer, for their ability to compete for the binding of [^3H]SPC and [^3H]16:0-LPC to GPR4.

[2] = biological target: T1, GPR4; experiment: ERK MAP kinase activation (phospho-ERK Western blot) in GPR4-infected Swiss 3T3 cells; type: cell-based; conditions: GPR4-ires-GFP vs GFP Swiss 3T3 cells; SPC and LPC 100 nM
Protocol: MAP kinases are key signaling intermediates of DNA synthesis and cell proliferation. Swiss 3T3 cells were infected with MSCV GPR4-ires-GFP or MSCV ires-GFP, and subsequently cells sorted by FACS for positive expression of GFP as described previously (Kabarowski et al. (2000) Proc Natl Acad Sci USA. 97, 12109-12114). Cells were plated in 6-well plates in DMEM containing 5% FBS, serum-starved overnight, and then treated lipids in DMEM for the indicated times. Cells were lysed on ice in RIPA buffer containing 50 mM Tris-HCl, pH 7.5, 1% Nonidet P-40, 0.5% deoxycholate,0.1% SDS, 150 mM NaCl, 2 mM EGTA, 25 mM sodium fluoride, 1 mM sodium orthovanadate, and 1× protease inhibitors (Sigma P8340). Lysates containing equal amounts of protein were separated on 10% SDS-polyacrylamide gels and transferred onto nitrocellulose membranes. Antibodies against phosphorylated ERK1/2 (Cell Signaling Technologies; Beverly, Mass.) were used to probe the membrane and the ECL system (Amersham) was used for detection. To normalize the amounts of protein loaded in each lane, membranes were stripped and re-probed with antibodies against total ERK (Cell Signaling Technologies). In some experiments, cells were pretreated with 100 ng/ml PTX for 12-16 h prior to SPC and LPC stimulation.

[3] = biological target: T1, GPR4; experiment: Single-cell intracellular calcium assay (fura-2) in GPR4-GFP-transfected MCF10A cells; type: cell-based; conditions: for increase in [Ca2+]i in GPR4- vs vector-transfected/parental MCF10A cells: lipid at 1 μM; for effect of PAF receptor antagonist on calcium response to LPC or SPC: BN52021 200 μM, WEB-2086 2 μM, WEB-2170 2 μM
Protocol: (§1) Measurement of [Ca^2+]i, was performed as described previously in Xu et al. (2000) Nat Cell Biol 2, 261-267. Briefly, pGPR4-GFP-transfected MCF10A cells were grown in specialized glass-bottom dishes (Bioptech, Inc., Butler, Pa.) and loaded with fura-2 in HEPES buffered saline. Using a dual-wavelength spectrofluorometer (RFK-6002, Photon Technology Int'l, So. Brunswick, N.J.) coupled to an inverted fluorescence microscope (Olympus, IX-70, Lake Success, N.Y.), GFP-positive cells were identified using an excitation wavelength of 488 nm, a dichroic 505 nm long-pass filter and an emitter filter at bandpass of 535 nm (Chroma Technology, Brattleboro, Vt.). Measurements of [Ca^2+]i were performed on individual GPR4-GFP positive cells at excitation wavelengths of 340 and 380 nm and an emission wavelength of 510 nm. Conversion of the 340/380 ratio value into [Ca^2+]i in nM was estimated by comparing the cellular fluorescence ratio with ratios acquired using fura-2 (free acid) in buffers containing known Ca^2+ concentrations. [Ca^2+]i was then calculated as described by Grynkiewicz et al. (1985) J Biol Chem 260, 3440-3450. All calcium assays were performed in the presence of 1 mM EGTA in the assay buffers. Therefore, intracellular calcium release, not calcium influx, was analyzed.
To test whether GPR4 is a receptor for SPC, MCF10A cells were transiently transfected with pGPR4-GFP.
The GFP receptor fusion was used to identify positively transfected cells, and single-cell calcium assays were performed as described in our previous studies, such as Xu et al. (2000) Nat Cell Biol 2, 261-267.

[4] = biological target: T1, GPR4; experiment: SRE luciferase reporter in GPR4-transfected HEK293 cells; type: cell-based; conditions: GPR4 cotransfection
Protocol: The serum-response element (SRE) reporter system is a sensitive assay for receptors of lipid factors (An et al. (1998) J Biol Chem 273, 7906-7910; An et al. (1999) Mol Pharmacol 55, 787-794). The SRE reporter system used herein (pSRE-Luc) was a gift from Dr. Songzhu An (UCSF), or may be purchased from Stratagene (La Jolla, Calif.). Both systems give identical results. HEK293 and HEK293GPR4 cells were cultured in RPMI1640 with 10% FBS in 10 cm dishes to ˜85% confluence. To the cells in each dish, pSRE-Luc (10 μg) was transfected in the presence of 60 μl LipofectAMINE reagent. Cells were seeded in 96-well plates 16 h after transfection, incubated for another 24 h in RPMI1640 with 10% FBS, and starved in serum-free medium for 16 h. SPC (dissolved in PBS to 10 mM) and other lipids (LPCs were dissolved in 70% ethanol. Other lipids were dissolved in PBS, 70-95% ethanol, or 100% MeOH) were diluted in serum free RPMI 1640 and added to the cells, followed by a 10 h incubation. Luciferase activity was measured in Microlite™ 1 plates (DYNEX Technologies, Inc., Virginia) using 60 μl of cell lysate and 20 μl luciferase substrate. PTX (100 ng/ml) was added during the 16 h serum starvation period and pcDNA1-C3 (encoding the C3-exoenzyme, 2 μg) was co-transfected with pSRE-Luc (10 μg). All experiments were performed in quadruplicate and were repeated at least three times. The Student's t test was performed using the GraphPad Instat software (San Diego, Calif.). p<0.05 was considered to be statistically significant.

[5] = biological target: T2, endogenous PAF receptor (Homo sapiens, UniProt P25105); experiment: Calcium assay of the endogenous PAF receptor in MCF10A cells; type: cell-based; conditions: BN52021 200 μM, WEB-2086 2 μM, WEB-2170 2 μM
T2 construct: endogenous in cells; host or cells: MCF10A (parental and GPR4-GFP-transfected)
Protocol: as §1
Therefore, it is unlikely that the increase in calcium induced by LPC was mediated by a PAF receptor.

[6] = biological target: T1, GPR4; experiment: Internalization of GPR4-GFP in HEK293 cells (confocal microscopy); type: cell-based
Protocol: pGPR4-GFP stably expressing HEK293 cells were cultured in 6 cm tissue culture dishes in RPMI1640 with 10% FBS. After 16-24 h serum starvation, cells were treated with different lipids at 37° C. for 2 h. Cells were washed with cold PBS and fixed with 4% paraformaldehyde in PBS. The subcellular localization of GPR4-GFP protein was visualized under a Leica TV confocal fluorescence microscope with a 63× oil immersion lens (Wetzler, Heidelberg, Germany). The excitation and emission wavelengths were 488 nm and 515-540 nm, respectively.
G protein coupled receptors undergo agonist-dependent desensitization and internalization. When HEK293 cells are transfected with the pEGFP-N1 vector, GFP protein is expressed in the cytosol of the cells. The GPR4-GFP and TDAG8-GFP fusion proteins, on the other hand, was expressed only on the plasma membrane.

T2 sequence (P25105 whole entry): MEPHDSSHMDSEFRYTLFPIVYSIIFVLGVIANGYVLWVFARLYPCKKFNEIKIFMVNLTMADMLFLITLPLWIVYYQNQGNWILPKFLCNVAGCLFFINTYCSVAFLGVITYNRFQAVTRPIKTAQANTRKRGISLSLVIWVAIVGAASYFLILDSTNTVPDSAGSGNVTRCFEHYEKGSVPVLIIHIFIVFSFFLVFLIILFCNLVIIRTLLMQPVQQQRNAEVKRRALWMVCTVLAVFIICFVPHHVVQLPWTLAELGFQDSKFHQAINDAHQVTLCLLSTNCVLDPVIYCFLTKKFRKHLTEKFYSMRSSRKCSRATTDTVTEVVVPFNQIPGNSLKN
T1 sequence (P46093 whole entry): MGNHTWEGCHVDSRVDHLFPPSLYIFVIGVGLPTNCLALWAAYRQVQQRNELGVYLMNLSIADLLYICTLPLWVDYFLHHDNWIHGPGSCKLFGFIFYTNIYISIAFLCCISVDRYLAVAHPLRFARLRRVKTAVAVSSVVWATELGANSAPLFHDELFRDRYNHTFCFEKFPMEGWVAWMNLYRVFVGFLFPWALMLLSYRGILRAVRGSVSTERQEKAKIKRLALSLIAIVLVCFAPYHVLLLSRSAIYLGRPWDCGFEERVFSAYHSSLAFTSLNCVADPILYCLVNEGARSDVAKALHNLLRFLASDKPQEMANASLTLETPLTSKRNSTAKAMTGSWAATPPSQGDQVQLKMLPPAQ

Row | Compound | competition for binding of [3H]SPC and [3H]16:0-LPC to GPR4 [1] | GPR4-dependent ERK activation (in words) [2] | increase in [Ca2+]i in GPR4- vs vector-transfected/parental MCF10A cells [3] | also measured
1 | CCCCCCCCCCCCC/C=C/[C@@H](O)[C@@H](N)CO[C@@H]1O[C@H](CO)[C@H](O)[C@H](O)[C@H]1O [Psy, psychosine] | None of these glycosphingolipids competed successfully | not | did not stimulate increases in [Ca^2+]i | –
2 | CCCCCCCCCCCCC/C=C/[C@@H](O)[C@@H](N)COP(=O)([O-])OCC[N+](C)(C)C [D-erythro-SPC] | – | – | stereoselectivity of GPR4 favoring D-erythro-SPC | –
3 | CCCCCCCCCCCCC/C=C/[C@@H](O)[C@@H](N)CO[C@@H]1O[C@H](CO)[C@@H](O)[C@H](O)[C@H]1O [Glu-Sph, glucosyl-β1′1-sphingosine] | None of these glycosphingolipids competed successfully | not | did not stimulate increases in [Ca^2+]i | –
4 | Sphingomyelin [SM (18:0)] | not | – | – | transcriptional activation of SRE (in words) [4]: none of them induced significant transcriptional activation of SRE
5 | Cc1nnc2n1-c1sc3c(c1C(c1ccccc1Cl)=NC2)CC(C(=O)N1CCOCC1)C3 (stereo not shown) [WEB-2170] | – | – | – | effect on calcium signal induced by PAF (100 nM) [5]: completely blocked; effect of PAF receptor antagonist on calcium response to LPC or SPC [3]: did not affect; effect of PAF receptor antagonist on calcium response to LPC or SPC ([3]; listed as WEB-2071): insensitive; effect of PAF receptor antagonist on GPR4 internalization induced by SPC or 16:0-LPC [6]: did not affect
6 | CC1C(=O)OC2C(O)C34C5CC(C(C)(C)C)C36C(OC(=O)C6O)OC4(C(=O)O5)C12O (stereo not shown) [BN52021] | – | – | – | effect on calcium signal induced by PAF (100 nM) [5]: completely abolished; effect of PAF receptor antagonist on calcium response to LPC or SPC [3]: not affected; effect of PAF receptor antagonist on GPR4 internalization induced by SPC or 16:0-LPC [6]: did not block
7 | lactosyl-β1′1-ceramide [Lac-Cer] | None of these glycosphingolipids competed successfully | activation was independent of GPR4 expression | did not stimulate increases in [Ca^2+]i | –
8 | CCCCCCCCCCCCC/C=C/[C@@H](O)[C@@H](N)COP(=O)([O-])OCC[N+](C)(C)C [L-threo-SPC] | – | – | favoring D-erythro-SPC (the bioactive form of SPC) vs. L-threo-SPC | –
9 | galactosyl-β1′1-ceramide [Gal-Cer] | None of these glycosphingolipids competed successfully | not | induced the same level of increased [Ca^2+]i | –
10 | lysophosphatidylinositol [LPI(18:0)] | not | – | – | –
11 | Cc1nnc2n1-c1sc(CCC(=O)N3CCOCC3)cc1C(c1ccccc1Cl)=NC2 [WEB-2086] | – | – | – | effect on calcium signal induced by PAF (100 nM) [5]: completely abolished; effect of PAF receptor antagonist on calcium response to LPC or SPC [3]: not affected; effect of PAF receptor antagonist on GPR4 internalization induced by SPC or 16:0-LPC [6]: did not affect
12 | CCCCCCCCCCCCCCCCCC(=O)OC[C@@H](O)COP(=O)([O-])OCC[N+](C)(C)C [18:0-LPC] | successfully competed for binding | – | – | –
